Test results from patent publication US10287552B2, “Generation of hepatocytes from pluripotent stem cells” (ALBERT EINSTEIN COLLEGE OF MEDICINE, INC., priority 2012, dated 2019).

B1: G-CSF: G-CSF (Amgen Inc.), factor identified in eFHLC-CM (protein, UniProt P09919 31-207, looked up)
Granulocyte …: TPLGPASSLPQSFLLKCLEQVRKIQGDGAALQEKLVSECATYKLCHPEELVLLGHSLGIPWAPLSSCPSQALQLAGCLSQLHSGLFLYQGLLQALEGISPELGPTLDTLQLDVADFATTIWQQMEELGMAPALQPTQGAMPAFASAFQRRAGGVLVASHLQSFLEVSYRVLRHLAQP

Test system: ATMP-tdT Huh-7 cells
Experiment: cis-P toxicity and ATM promoter activity assay
Type: cell-based, human
Conditions: 15 μM cis-P alone

Molecule | ATM promoter activity
N.N.[Cl][Pt][Cl] [Cis-P, cis-platinum, reference compound] | increased

Same assay, conditions: cis-P plus factor, versus cis-P-treated cells

Molecule | ATM promoter activity | cell viability
VEGF | ineffective | ineffective
IGF1: growth factor identified in eFHLC-CM | lowered ATM promoter activity | improved cell viability
FGF1: growth factor identified in eFHLC-CM | lowered ATM promoter activity | improved cell viability
FGF2: growth factor identified in eFHLC-CM | lowered ATM promoter activity | improved cell viability
B1 | lowered ATM promoter activity | improved cell viability
